# Entries after “also recorded” stand apart in the source; their conditions may differ.
# Experiments:
# patients with SCD [1] = experiment: Quality of Life survey using the FANTLC questionnaire; format: in vivo, human
# Description: Four aspects of QoL issues were examined: Physical well-being, Social well-being, Emotional well-being, and Functional well-being. The scores for response for each of the question were on a scale of 0-4 (0=not at all; 4=very much). As a group, the median score for response to the question “I have pain” decreased from 3.5 to 2 (p=0.08). When the two patients who reported only slight pain before the study (score of 0 or 1) were excluded from the analysis, the median score decreased from 4 to 3 (p=0.04). Changes in the functional well-being of the subjects was examined. […] However, when three subjects were excluded who reported excellent functional well-being even before the study (scores of 3 o 4 for all 7 questions) from the analysis, there was an improvement in the functional well-being of the 9 patients, with the median composite score increased from 14 to 16 (p=0.06).
# Clostridium difficile = details: cited from earlier work
# urinary 3-IS = experiment: Urinary 3-IS, total intestinal microbial load, in SCD patients; format: in vivo, human; details: after being started on oral rifaximin
# serum CD62L = experiment: Serum CD62L, marker of neutrophil activation, in SCD patients; format: in vivo, human; details: SCD subjects following rifaximin treatment
# serum LPS = experiment: Serum lipopolysaccharides (LPS), bacterial translocation, in SCD patients; format: in vivo, human; details: all treated patients vs pre-treatment; to levels comparable to controls without SCD
# intestinal microbiome = experiment: 16S rRNA analysis of stool specimens for changes in intestinal microbiome; format: in vivo, human; details: during vs pre-rifaximin treatment
# Description: Relative abundances were transformed with the additive log ratio (alr), prior to calculating the difference, to reduce the spurious correlations associated with compositional data. Positive differences signify increased abundance post treatment. Histograms represent the frequency of differences between during and pre-rifaximin treatment alr values, where an increase of abundance during treatment is indicated by a shift of the distribution towards the right.
# patients with SCD [2] = experiment: Clinical trial: laboratory analyses, tolerability and adverse events; format: in vivo, human
# Description: (§1) (ClinicalTrials.gov Identifier: NCT03719729). There were eight males and five females. Ten patients had HbSS, two HbSß^0thal, and one HbSC. Their median age was 29 years (range 24-56). The median number of VOC in the previous 12 months was 4.5 (range 2-13) and number of days needing intravenous opioid analgesia (IOA) was 25.5 days (range 8-198). In 12 of the 13 patients, the VOC was in the form of musculo-skeletal pain typical in distribution for the VOC that normally affected individual patients and in one patient, the VOC was predominantly in the form of recurrent priapism. Five of the patients were already taking hydroxyurea and none L-glutamine or on a transfusion program. Six patients were taking oral opioid at home for chronic pain. The study ran between November 2018 and early August 2019, covering the winter months when most of the patients reported having most frequent VOC. […] CANs were measured by multicolor flow cytometry. Neutrophils were gated by Gr-1^hi CD115^lo SSC^hi and CANs by CD62L^lo CXCR4^hi within the neutrophil population.
# (§2) Twelve of the 13 patients accrued to the study were evaluable for response. […] The mean self-reported medication compliance of the intended doses was 86% (range 50-100). The median number of VOC during the study period decreased from the expected 2.25 (range 1-6.5) per 6 months to 1 per 6 months (range 0-4) (p=0.003) (FIG. 8). […] Their self-reported medication compliance was 100%. The median decrease in days needing IOA over the six-month study-period was 9 (range 1-55), and the median % reduction was 82 (range 20-100) (p=0.008) (FIG. 9). Total number of days needing IOA was reduced from the expected 254 in six months to 98 during the study period. […] Reported adverse events: 1 case of self-limiting probable viral gastroenteritis (culture negative, C. diff negative by PCR) and 2 cases of increased thirst. Slight nausea was common in the first week.
# [3] = tested on: circulating aged neutrophils (CANs); experiment: Circulating aged neutrophils (CANs) by multicolor flow cytometry in SCD patients on rifaximin; format: in vivo, human
# Description: as §1
# serum iFABP = experiment: Serum intestinal Fatty Acid Binding Protein (iFABP), intestinal injury, in SCD patients; format: in vivo, human; details: 12 SCD patients following rifaximin; to levels comparable to controls without SCD
# patients with SCD [4] = experiment: Clinical trial NCT03719729: VOC episodes and days needing intravenous opioid analgesia; format: in vivo, human
# Description: as §1, §2
smiles,measurement,setting,value
CO[C@H]1/C=C/O[C@@]2(C)Oc3c(C)c(O)c4c(O)c(c5c(nc6cc(C)ccn65)c4c3C2=O)NC(=O)/C(C)=C\C=C\[C@H](C)[C@H](O)[C@@H](C)[C@@H](O)[C@@H](C)[C@H](OC(C)=O)[C@@H]1C [rifaximin],median composite score of functional well-being,"patients with SCD [1]; 9 patients, three with excellent baseline excluded, before 14, p=0.06",16
same,"median score to the question ""I am enjoying the things I usually do for fun""","patients with SCD [1]; after three months of rifaximin, before 1, p=0.048",2.5
same,"median score to the question ""I am able to enjoy life""","patients with SCD [1]; after three months of rifaximin, before 2, p=0.026",2.5
same,"functional well-being, as a group",patients with SCD [1]; following rifaximin,not any significant difference
same,emotional and social well-being,patients with SCD [1]; following rifaximin therapy,No significant change
same,"median score for response to the question ""I have pain""","patients with SCD [1]; scale 0-4, as a group, before rifaximin 3.5, p=0.08",2
same,"median score ""I have pain"", two patients with only slight pain excluded","patients with SCD [1]; scale 0-4, before rifaximin 4, p=0.04",3
same,activity against Clostridium difficile,Clostridium difficile,has activities against Clostridium difficile
same,change in urinary 3-IS,urinary 3-IS,drops and drop
same,change in serum CD62L,serum CD62L,drop and significant drop
same,change in serum LPS levels,serum LPS,dropped significantly
same,abundance of Akkermansia in stool,intestinal microbiome,trend towards increased abundance
same,abundance of Bacteroides in stool,intestinal microbiome,increase in the abundance
same,abundance of Escherichia-Shigella in stool,intestinal microbiome,trend towards increased abundance
same,adverse event: increased thirst,"patients with SCD [2]; both, human, in vivo, 6 months",2 cases
same,adverse event: self-limiting probable viral gastroenteritis,"patients with SCD [2]; culture negative, C. diff negative by PCR, 12 patients",1 case
same,adverse event: slight nausea,"patients with SCD [2]; human, in vivo",common
same,change in bilirubin,"patients with SCD [2]; human, in vivo",did not show any significant change
same,change in haptoglobin,"patients with SCD [2]; human, in vivo",did not show any significant change
same,change in hemoglobin,"patients with SCD [2]; human, in vivo",did not show any significant change
same,change in serum lactate dehydrogenase,"patients with SCD [2]; human, in vivo",did not show any significant change
same,change in white cell counts,"patients with SCD [2]; human, in vivo",did not show any significant change
same,median CANs after rifaximin therapy,"[3]; SCD patients, 550 mg twice a day, after 2-4 weeks, range 2.63-20.25, pre-treatment median 12.65% [range 6.07-40.05], two-tailed p=0.0036",4.55%
same,change in CANs after being started on rifaximin,"[3]; all twelve patients, after 2-4 weeks of rifaximin",marked reduction; also recorded: dramatic reduction
same,CANs at the three-month time-point,[3]; two patients whose CANs were analyzed,continued to decrease
same,change in serum iFABP,serum iFABP,dropped significantly
same,median number of VOC during the study period,"patients with SCD [4]; 12 patients, six months of rifaximin, range 0-4, expected 2.25 (range 1-6.5) per 6 months, p=0.003",1 per 6 months
same,total number of days needing IOA during the study period,patients with SCD [4]; expected 254 in six months,98 days
same,response of the one patient whose VOC was predominantly priapism,patients with SCD [4]; self-reported medication compliance 100%,did not respond
same,median decrease in days needing IOA,"patients with SCD [4]; six-month study period vs expected, range 1-55",9 days
same,median % reduction in days needing IOA,"patients with SCD [4]; six-month study period vs expected, range 20-100, p=0.008",82%

# Reference: US12357620B2 (New York Medical College, priority 2019, dated 2025)
